Source: patent publication EP4635969A1, “NOVEL GLUCOCORTICOID, METHOD FOR PREPARING SAME, AND USE THEREOF” (Tianjin Pharmaceutical Biotechnology Co., Ltd., priority 2022, dated 2024)

Experiments:
asthma model mice = assay: Anti-asthma pharmacodynamic experiment: airway hyperresponsiveness (Penh) after methacholine challenge; assay type: in vivo, female BALB/c mice; settings: for Penh values in mice, Methacholine concentration (mg/ml) 0 / Penh values in mice, Methacholine concentration (mg/ml) 6.25 / Penh values in mice, Methacholine concentration (mg/ml) 12.5: 0.3 mg/mL, 50 µL intratracheally once daily for 3 days; for Penh values in mice, Methacholine concentration (mg/ml) 0: methacholine 0 mg/ml; for Penh values in mice, Methacholine concentration (mg/ml) 6.25: methacholine 6.25 mg/ml; for Penh values in mice, Methacholine concentration (mg/ml) 12.5: methacholine 12.5 mg/ml
[1] = test system: inflammatory cytokines IL-6 and IL-12; assay: Anti-asthma pharmacodynamic experiment: inflammatory cytokines in bronchoalveolar lavage fluid (ELISA); assay type: in vivo, female BALB/c mice; settings: for IL-6 / IL-12: bronchoalveolar lavage fluid, 0.3 mg/mL, 50 µL intratracheally once daily for 3 days
[2] = biological target: T1, mineralocorticoid receptor (MR) (Homo sapiens, UniProt P08235); assay: Assay for agonist activity on mineralocorticoid receptor (luciferase reporter, HEK293 cells transfected with pBIND-MR plasmid); assay type: cell-based; settings: EC50 of agonist activity, HEK293 reporter cells, top concentration 50 µM; read-out: Nuclear receptor enzyme activity (nM) MR
T1 sequence (P08235 726-984): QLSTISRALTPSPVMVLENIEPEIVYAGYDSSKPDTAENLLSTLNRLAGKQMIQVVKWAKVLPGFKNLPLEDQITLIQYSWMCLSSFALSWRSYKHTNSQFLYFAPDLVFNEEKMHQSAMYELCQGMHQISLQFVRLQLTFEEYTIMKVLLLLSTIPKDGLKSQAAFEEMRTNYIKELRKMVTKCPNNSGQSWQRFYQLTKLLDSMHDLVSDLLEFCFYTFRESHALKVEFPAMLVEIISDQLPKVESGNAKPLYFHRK
Description: (§1) Pharmacological Example 2: Assay for Agonist Activity on Mineralocorticoid Receptor (MR) and Progesterone Receptor (PR)
(§2) Test compound stock solutions: The test compounds (compounds 4, 5, 7, 8, 9, 11, 13, 16, 17, 18, 22, 23, 24, 34, 35, 36, 38, 41, 45, 47, 53, 55, and 59) were accurately weighed, dissolved in DMSO to prepare stock solutions at a concentration of 20 mM, and stored at -20 °C.
(§3) The test compounds were subjected to a 4-fold serial dilution starting from an initial concentration of 50 µ M, generating a 12-point concentration gradient with duplicate wells for each concentration. The blank control consisted of 0.1% DMSO.
(§4) The HEK293 stable cell lines […] transfected with mineralocorticoid receptor (MR) and progesterone receptor (PR) (ICE Bioscience, Lot No. TYP-20220819, TPJ-20220812) were cultured in Dulbecco's Modified Eagle Medium (DMEM) supplemented with 10% fetal bovine serum (FBS) and 200 µ g/ml Hygromycin B in a cell incubator containing 5% CO2 at 37 °C. The spent medium was aspirated, and the cells were washed once with phosphate-buffered saline (PBS). Then, 1 mL of TrypLE™ Express solution was added, and the cells were incubated at 37 °C for approximately 2 min. When the cells detached from the bottom of the cell culture dish, approximately 5 mL of pre-warmed complete medium at 37 °C was added. The cell suspension was gently pipetted with a pipette to dissociate clumped cells. The cell suspension was transferred to a sterile centrifuge tube and centrifuged at 1000 rpm for 5 min to pellet the cells for experiments or subculture..
(§5) HEK293 cells were digested and seeded into 6-cm culture dishes. The pBIND-MR and pBIND-PR plasmids were separately transfected into the HEK293 cells using a transfection reagent, resulting in HEK293 cells successfully transfected with the pBIND-MR and pBIND-PR plasmids, respectively. The cells were resuspended in phenol red-free DMEM medium containing 5% charcoal-stripped serum, counted, and then seeded into 96-well plates. The test compounds were added, and the plates were then incubated in an incubator. The luminescence signal values were measured using a multimode microplate reader following the instructions of the luciferase assay kit. The EC50 values of each test compound were calculated using the nonlinear fitting formula with GraphPad Prism 8.0 software.

[3] = biological target: T2, progesterone receptor (PR) (Homo sapiens, UniProt P06401); assay: Assay for agonist activity on progesterone receptor (luciferase reporter, HEK293 cells transfected with pBIND-PR plasmid); assay type: cell-based; settings: EC50 of agonist activity, HEK293 reporter cells, top concentration 50 µM; read-out: Nuclear receptor enzyme activity (nM) PR
T2 sequence (P06401 678-933): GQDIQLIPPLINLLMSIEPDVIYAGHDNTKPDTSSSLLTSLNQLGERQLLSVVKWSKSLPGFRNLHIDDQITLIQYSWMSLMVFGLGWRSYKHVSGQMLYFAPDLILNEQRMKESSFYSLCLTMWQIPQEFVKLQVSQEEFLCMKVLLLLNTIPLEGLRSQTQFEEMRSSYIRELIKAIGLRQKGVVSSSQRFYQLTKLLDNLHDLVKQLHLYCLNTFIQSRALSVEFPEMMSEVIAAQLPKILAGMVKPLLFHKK
Description: as §1, §2, §3, §4, §5

[4] = test system: inflammatory bowel disease model rats; assay: Inflammatory bowel disease experiment (TNBS model): macroscopic injury score of the colon; assay type: in vivo; settings: colon, day 5 after TNBS; 2 mg/kg once a day (compounds intraintestinally, dexamethasone by gavage)
Description: Pharmacological Example 7: Pharmacodynamic Experiment on Inflammatory Bowel Disease in Rats
Test samples: The jet-milled compounds 23 and 34 were accurately weighed and prepared as 2 mg/mL clear solutions using anhydrous ethanol, respectively. The solutions were then diluted to 0.2 mg/mL with double-distilled water as the test samples, and stored at room temperature protected from light until use.
Animals in Groups 2 to 5 were subjected to trinitrobenzene sulfonic acid (TNBS) modeling as follows: A 5% TNBS aqueous solution was adjusted to 20 mg/mL TNBS (50% ethanol solution) with alcohol and water. After fasting for 24 h, the rats were anesthetized using an inhalation anesthesia machine. A silicone hose was inserted approximately 8 cm into the anus, and then TNBS was injected at a dose of 50 mg/kg. After injection, the rats were placed vertically for 1 min to prevent the backflow of TNBS solution. Then, the rats were placed into their cages for observation until the animals recovered.
Drug administration started one day before modeling, with one dose administered 1 hour before modeling and then once a day for 5 consecutive days. […] Table 14. Animal grouping and drug administration dosages
The experiment ended on day 5 after TNBS modeling. After isoflurane anesthesia, blood was collected from the hearts, and the rats were euthanized. The abdominal cavity was rapidly opened, and the macroscopic injury scoring of the colon in rats was performed based on the adhesion, obstruction, thickening of the colonic wall, colonic congestion, and necrosis in the colon area. After clearing the colonic contents, the colonic samples were longitudinally incised. The proximal 2/3 of the colon was excised, prepared into Swiss rolls, and stored in 4% neutral buffered formalin for histopathological analysis. Tissues were trimmed, dehydrated, paraffin-embedded, and sectioned (approximately 5 µm thickness), stained with hematoxylin-eosin (HE), and observed for pathological changes. Pathologists performed blind scoring of colonic lesions.
Quantitative indices were first subjected to Bartlett's test for homogeneity of variance. When the variance was homogeneous (P > 0.05), one-way analysis of variance (ANOVA) was used for a statistical test; if there was statistical significance (P ≤ 0.05), Dunnett's t-test (Dunnett method) was used to compare intergroup differences; if there was no statistical significance (P > 0.05), the statistical analysis was concluded. When the variance was heterogeneous (P ≤ 0.05), Kruskal-Wallis H rank-sum test (K-W method) was used for statistical analysis: if there was statistical significance (P ≤ 0.05), Mann-Whitney U test (M-W method) was further performed to compare intergroup differences; if there was no statistical significance (P > 0.05), the statistical analysis was concluded.

uveitis model rats = assay: Anti-uveitis pharmacodynamic experiment (LPS model): ocular pathological score; assay type: in vivo, male SD rats
Description: Pharmacodynamic Experiment on Anti-Uveitis
Positive control drug: Fluorometholone Eye Drops (specification: 5 mL/5 mg; Santen Pharmaceutical (CHINA) Co., Ltd.; Lot No. : J20180068) was used as the positive control drug and stored at room temperature protected from light until use.
Fifty male SD rats underwent a one-week adaptive feeding period. […] Groups 2 to 5 were used to establish rat uveitis models by single subcutaneous injection of 1 mg/kg LPS (Salmonella; Sigma; Lot No. 0000164114) into the plantar tissue of the hindpaw. Salmonella endotoxin was dissolved in normal saline to prepare an injection solution at a concentration of 2 mg/mL, which was injected subcutaneously at 1 mg/kg into the plantar tissue of one paw of the rats. Group 1 was injected with an equal volume of normal saline.
At the end of the experiment, photos of the rats' eyes were taken using a slit-lamp microscope, and the differences in ocular lesions of rats among groups were compared and analyzed.
Statistical analysis was performed using SPSS software. Measurement data were expressed as mean ± standard deviation. One-way ANOVA was used for intergroup comparisons. For data with homogeneous variance, LSD test was used; for data with heterogeneous variance, Dunnett-t test was used. A value of P < 0.05 was considered statistically significant.

[5] = test system: dry eye syndrome model New Zealand rabbits; assay: Dry eye syndrome experiment (benzalkonium chloride model): tear secretion test with phenol red cotton threads; assay type: in vivo, male New Zealand White rabbits
[6] = test system: dry eye syndrome model New Zealand rabbits; assay: Dry eye syndrome experiment (benzalkonium chloride model): tear film break-up time; assay type: in vivo, male New Zealand White rabbits
Description: (§6) Positive control drug: Fluorometholone Eye Drops (specification: 5 mL/5 mg; Santen Pharmaceutical (CHINA) Co., Ltd.; Lot No.: 1FM6625) was used as the positive control drug and stored at room temperature protected from light until use.
Thirty male New Zealand White rabbits (conventional grade) were prepared. Six rabbits were randomly selected as the blank control group, and the remaining animals were administered 0.1% benzalkonium chloride to the left eye twice daily (morning and evening) , 10 µL/animal each time. On day 6 of modeling, tear secretion was measured using phenol red cotton threads to determine whether the model was successfully established. […] During the administration, all animals except the blank control group were administered 10 µL of 0.1% benzalkonium chloride to the left eye once daily to maintain dry eye symptoms..
• Test time: D3, D7, D15; • Test animals: All animals were tested before grouping; all enrolled surviving animals were tested after administration; • Test method: 1% Fluorescein sodium was dropped onto the inner side of the rabbit's lower eyelid, 10 µL/animal. The rabbit's eyes were closed and gently massaged to evenly distribute the fluorescein sodium on the eye surface. The rabbit's eyes were then sequentially placed under a slit lamp. The tear film break-up time was observed and recorded as the time from eye opening to the appearance of the first dark spot. If no dark spot appeared, the time was calculated as 60 seconds.
(§7) The normality and homogeneity of variance were tested by Levene's test. If there was no statistical significance (P > 0.05), one-way analysis of variance (ANOVA) was used for statistical analysis. If ANOVA was statistically significant (P ≤ 0.05), LSD test (parametric method) was used for comparative analysis. If the variance was heterogeneous (P ≤ 0.05), Kruskal-Wallis test was used. If the Kruskal-Wallis test was statistically significant (P ≤ 0.05), Dunnett's test (nonparametric method) was used for comparative analysis.

[7] = test system: dry eye syndrome model New Zealand rabbits; assay: Dry eye syndrome experiment (benzalkonium chloride model): corneal fluorescein sodium staining; assay type: in vivo, male New Zealand White rabbits
Description: Pharmacological Example 6: Therapeutic Pharmacodynamic Experiment on Dry Eye Syndrome in New Zealand Rabbits
as §6
Thirty male New Zealand White rabbits (conventional grade) were prepared. Six rabbits were randomly selected as the blank control group, and the remaining animals were administered 0.1% benzalkonium chloride to the left eye twice daily (morning and evening) , 10 µL/animal each time. […] During the administration, all animals except the blank control group were administered 10 µL of 0.1% benzalkonium chloride to the left eye once daily to maintain dry eye symptoms..
• Test time: D3, D7, D15; • Test animals: All animals were tested before grouping; all enrolled surviving animals were tested after administration; • Test method: 2 µL of 1% Fluorescein sodium was dropped into the conjunctival sac. After 5 s, the excess fluorescein was rinsed with 0.9% normal saline. The conjunctival staining was observed under a slit lamp with cobalt blue diffused light.
as §7

[8] = test system: intraocular pressure of guinea pigs; assay: Adverse reactions of continuous ocular administration: intraocular pressure; assay type: in vivo
Description: Pharmacological Example 9: Experiment on Adverse Reactions of Continuous Ocular Administration in Guinea Pigs
Test samples: Compounds 17 and 23 were prepared as 5 mg/5 mL ophthalmic suspensions with reference to the formulation of Fluorometholone Eye Drops, and stored at room temperature protected from light until use.
Positive control drug: Fluorometholone Eye Drops (specification: 5 mL/5 mg; Santen Pharmaceutical (CHINA) Co., Ltd.; Lot No.: 1FM6545), Loteprednol Etabonate Eye Drops (specification 0.5% (5 mg/mL); Shandong Bausch & Lomb Freda Pharmaceutical Co., Ltd; Lot No. 386521), stored at room temperature protected from light until use.
Animals: 50 guinea pigs, conventional grade, with an equal number of males and females, weighing 300-350 g..
Animal grouping: After 5 days of adaptive feeding, the guinea pigs were randomly divided into 5 groups based on body weight. Group 1 was the blank control group, and 50 µL of normal saline was dropped into the eyes (bilateral) of the guinea pigs. Groups 2 to 5 were the fluorometholone group, loteprednol group, compound 17 group, and compound 23 group, respectively, and the corresponding drugs were dropped into the eyes (bilateral) of the guinea pigs. Table 19. Animal grouping and drug administration dosages for the experiment on adverse reactions of continuous ocular administration in guinea pigs
Intraocular pressure measurement time: The intraocular pressure of animals in each group was measured before administration and on days 7, 14, 21, and 28 post-administration.

[9] = D3, 1 mg/mL, 50 µL/eye, 3 times a day for 14 days
[10] = D7, 1 mg/mL, 50 µL/eye, 3 times a day for 14 days
[11] = D15, 1 mg/mL, 50 µL/eye, 3 times a day for 14 days

CCCC1O[C@@H]2C[C@H]3[C@@H]4CCC5=CC(=O)C=C[C@]5(C)[C@H]4[C@@H](O)C[C@]3(C)[C@]2(C(=O)CO)O1 (stereo partly drawn) [Budesonide, reference compound]
Penh values in mice, Methacholine concentration (mg/ml) 0 (asthma model mice): 1.12 ± 0.30 | Penh values in mice, Methacholine concentration (mg/ml) 6.25 (asthma model mice): 1.65 ± 0.29 | Penh values in mice, Methacholine concentration (mg/ml) 12.5 (asthma model mice): 2.14 ± 0.38 | IL-6 [1]: 21.5 ± 6.8 pg/mL | IL-12 [1]: 17.5 ± 4.9 pg/mL

C[C@]12C=CC(=O)C=C1[C@@H](F)C[C@H]1[C@@H]3C[C@H]4OC(c5ccc(CSC6COC(=O)C6)cc5)O[C@@]4(C(=O)CO)[C@@]3(C)C[C@H](O)[C@@]12F (stereo partly drawn) [Compound 11, (2S,6aS,6bR,7S,8aS,8bS,11aR,12aS,12bS)-2,6b-Difluoro-7-hydroxy-8b-(2-hydroxyacetyl)-6a,8a-dimethyl-10-(4-(((5-oxotetrahydrofuran-3-yl)thio)methyl)phenyl)-1,2,6a,6b,7,8,8a,8b,11a,12,12a, 12b-dodecahydro-4H-naphtho[2',1':4,5]indeno[1,2-d][1,3]dioxol-4-one]
EC50 [2]: > 50000 nM | EC50 [3]: > 50000 nM | Penh values in mice, Methacholine concentration (mg/ml) 0 (asthma model mice): 1.08 ± 0.18 | Penh values in mice, Methacholine concentration (mg/ml) 6.25 (asthma model mice): 1.45 ± 0.31 | Penh values in mice, Methacholine concentration (mg/ml) 12.5 (asthma model mice): 1.92 ± 0.34 | Effects on airway hyperresponsiveness (Penh values) in mice (asthma model mice; compared with the model group): significantly decreased the Penh values in mice | IL-6 [1]: 16.3 ± 7.9 pg/mL | IL-12 [1]: 11.1 ± 3.7 pg/mL | Effects on inflammatory cytokines in bronchoalveolar lavage fluid of mice ([1]; compared with the model group): extremely significantly decreased the levels of IL-6 and IL-12 in mice

C[C@@H]1C[C@H]2[C@@H]3CCC4=CC(=O)C=C[C@]4(C)[C@@]3(F)[C@@H](O)C[C@]2(C)[C@@]1(O)C(=O)CO [Dexamethasone, reference compound]
Macroscopic injury score [4]: 5.00 ± 0.66

CC(=O)[C@@]1(O)CC[C@H]2[C@@H]3C[C@H](C)C4=CC(=O)C=C[C@]4(C)[C@@]3(F)[C@@H](O)C[C@@]21C [Fluorometholone, reference compound]
Ocular pathological score (uveitis model rats; 1 mg/mL, 40 µL/eye, 3 times a day for 2 days): 7.1 ± 0.7 | ocular abnormalities / ocular pathological score (uveitis model rats; compared with the model group): significantly improved the ocular abnormalities and reduced the ocular pathological score | Wetting length of phenol red cotton threads (mm) D0 ([5]; D0, 1 mg/mL, 50 µL/eye, 3 times a day for 14 days): 26.35 ± 5.52 mm | Wetting length of phenol red cotton threads (mm) D3 [5, 9]: 29.45 ± 5.48' mm | Wetting length of phenol red cotton threads (mm) D7 [5, 10]: 30.41 ± 5.29" mm | Wetting length of phenol red cotton threads (mm) D15 [5, 11]: 32.26 ± 3.69 mm | tear secretion ([5]; compared with the model group): significantly increased the tear secretion on day 15 | Tear film break-up time (s) D3 [6, 9]: 43.17 ± 14.47 s | Tear film break-up time (s) D7 [6, 10]: 47.33 ± 16.37 s | Tear film break-up time (s) D15 [6, 11]: 51.33 ± 13.44" s | tear film break-up time ([6]; compared with the model group): significantly increased the tear film break-up time on day 15 | Corneal fluorescein sodium staining score D3 [7, 9]: 1.67 ± 0.82 | Corneal fluorescein sodium staining score D7 [7, 10]: 1.17 ± 0.41 | Corneal fluorescein sodium staining score D15 [7, 11]: 1.0 ± 0 | inflammatory response on the ocular surface / ocular symptoms ([7]; compared with the model group): significantly inhibited the inflammatory response on the ocular surface on day 15 | intraocular pressure after continuous ocular administration [8]: intraocular pressure elevation was detected on day 7 | Intraocular pressure of guinea pigs (mmHg) D0 ([8]; D0, before administration, 50 µL/eye (compounds and fluorometholone 1 mg/mL, loteprednol 5 mg/mL)): 14.3 ± 1.5 mmHg | Intraocular pressure of guinea pigs (mmHg) D7 ([8]; D7, 50 µL/eye (compounds and fluorometholone 1 mg/mL, loteprednol 5 mg/mL)): 20.5 ± 3.3 mmHg | Intraocular pressure of guinea pigs (mmHg) D14 ([8]; D14, 50 µL/eye (compounds and fluorometholone 1 mg/mL, loteprednol 5 mg/mL)): 21.2 ± 2.1 mmHg | Intraocular pressure of guinea pigs (mmHg) D21 ([8]; D21, 50 µL/eye (compounds and fluorometholone 1 mg/mL, loteprednol 5 mg/mL)): 23.0 ± 3.1 mmHg | Intraocular pressure of guinea pigs (mmHg) D28 ([8]; D28, 50 µL/eye (compounds and fluorometholone 1 mg/mL, loteprednol 5 mg/mL)): 22.5 ± 2.1 mmHg
